Data reported in patent publication US20240335373A1, “Methods, Systems and Devices for Post-Fabrication Drug Loading” (THE UNIVERSITY OF NORTH CAROLINA AT CHAPEL HILL, priority 2020, published 2024).
In brackets after ≈: the same amount, converted by molar mass. Values belong to the molecule of their own block, whether it stands above or below them.

Assays:
[1] = Drug loading of post-loaded SIL 30 diffusion blocks, solvent extraction and HPLC; format: physicochemical; details: for Drug Loading / Wt. % Loading: loaded 5 mg/mL in acetone 24 hr
Protocol: Loading. […] . Solutions of 5 mg/mL of drug in acetone were prepared and validated via HPLC. […] Blocks were then divided into an extraction set and a release set.
Extraction. Drug-loaded blocks were extracted using methods previously described in Section 2.6 using acetone as the extraction solvent. Aliquots were collected and analyzed with HPLC. Weight percent loading was determined as the total drug extracted relative to the mass of the dried blocks.
Block types 6.0 and 7.6 mm (n=8 of each type) were fabricated in SIL 30. A solution containing 8.562 mg/mL of 4′-ethynyl-2-fluoro-2′-deoxyadenosine (EFdA) in acetone was prepared and validated via HPLC. Blocks were batch immersed in post-loading solution for up to 24 hr. Blocks were divided into extraction (n=4) and release (n=4) sets. EFdA was extracted from blocks in acetone as previously described and quantified with HPLC. Release blocks were individually immersed in 60 mL of SVF and placed in an incubator at 37° C. Aliquots and analysis were completed using methods previously described. EFdA was quantified with HPLC, eluting at 5.31 min at 265 nm.
A test part described as a diffusion block with dimensions in X, Y, and Z of 10 mm, 20 mm, and 4 mm, respectively, was primarily used. The general flow of the post-loading process is outlined in FIG. 6A. The initial metrics of dimensional and mass measurements were taken for every block used prior to loading or testing. The block was then immersed in a post-loading solution containing a known concentration of the API for a specified duration. The part was removed and measured for swollen metrics. An aliquot of the post-loading solution following part removal was taken for HPLC analysis. The part was then dried in an oven to remove the post-loading solvent, after which the part was measured for dried metrics. These metrics serve as check points to precisely investigate part behavior throughout the post-loading process, specifically dimensional deformations. Once the part was post-loaded it can either be tested for total drug content via an extraction process, outlined in FIG. 6B, or tested for drug release in simulated vaginal fluid (SVF), outlined in FIG. 6C. Aliquots from both processes are taken for HPLC analysis.
. For these samples, metrics were taken and aliquots were analyzed via HPLC on a C18 column with an optimized method. Extraction aliquots and post-loading solution aliquots were diluted in acetonitrile (ACN) at 1:100 while release samples were analyzed as is. Extracted material includes both the incorporated drug (β-estradiol) as well as leachables/extractables. […] .
Blocks were further assessed by quantifying the extracted drug via HPLC. The total amount of drug extracted, weight percent loading and loading efficiency were calculated and averaged, with variation described by % RSD. Overall, a slight decrease in loading metrics was observed as a function of loading order. However, once averaged out, these values yielded minimal variability. Additionally, values shown are in-line with those obtained during the reproducibility study (Section 3.2) for methanol.
Both pre-loaded and post-loaded blocks were extracted in 20 mL of EtOH for 72 hours. Aliquots were taken and analyzed via HPLC. […] . […] Therefore, for the sake of consistency between previous results and subsequently prepared samples, loading values obtained in Round II were used for all calculations.

[2] = In vivo PK of EFdA-loaded IVRs in macaques; details: female pigtailed macaques, 28 days
Protocol: Macaque size (25 mm OD) 3D printed IVRs post-loaded with EFdA at 45 mg/IVR or 62 mg/IVR were administered to female pigtailed macaques and plasma, PBMCs, vagina and rectal fluids, and vaginal and rectal biopsies were collected over 28 days and analyzed for EFdA concentration and EFdA-TP (triphosphorilated EFdA, EFdA-TP) in PBMCs.

[3] = cited from earlier work
physchem = details: organic solvent or mixture
[4] = In vitro release from drug-loaded blocks or ring sections in simulated vaginal fluid (SVF); format: physicochemical; details: for Drug Release at Zero Order Mass/Day / Drug Release at Zero Order Percent/Day: linear regression from Day 2
[5] = SIL 30 block 6.21 ± 0.03 mm, 8.562 mg/mL in acetone
[6] = SIL 30 block 6.21 ± 0.03 mm, 8.562 mg/mL in acetone up to 24 hr
[7] = SIL 30 block 7.62 ± 0.03 mm, 8.562 mg/mL in acetone
[8] = SIL 30 block 7.62 ± 0.03 mm, 8.562 mg/mL in acetone up to 24 hr
[9] = SIL 30 block 6.29 ± 0.04 mm, 5 mg/mL in acetone
[10] = SIL 30 block 6.29 ± 0.04 mm, 5 mg/mL in acetone 24 hr
[11] = SIL 30 block 7.81 ± 0.08 mm, 5 mg/mL in acetone
[12] = SIL 30 block 7.81 ± 0.08 mm, 5 mg/mL in acetone 24 hr

Normalized Delta SSA [1, 5]: −150.63 ± 4.00 | Normalized Wt. % by S-SSA [1, 5]: 81.4 ± 2.26 | Drug [1, 6]: 32.76 ± 0.76 mg | Loading [1, 6]: 2.41 ± 0.06 Wt. % | Normalized Delta SSA [1, 7]: −195.95 ± 4.41 | Normalized Wt. % by S-SSA [1, 7]: 99.91 ± 3.67 | Drug [1, 8]: 36.91 ± 1.18 mg | Loading [1, 8]: 2.15 ± 0.07 Wt. % | EFdA levels in tissue and fluid samples ([2]; 45 mg/IVR or 62 mg/IVR): above the known efficacious levels | EFdA-TP levels in PBMCs ([2]; 45 mg/IVR or 62 mg/IVR): above the known efficacious levels | PK levels ([2]; 62 mg vs 45 mg EFdA IVR): dose dependent
Structure (SMILES): C#C[C@]1(CO)O[C@@H](n2cnc3c(N)nc(F)nc32)C[C@@H]1O [EFdA, 4′-ethynyl-2-fluoro-2′-deoxyadenosine]

Structure (SMILES): C[C@]12CC[C@@H]3c4ccc(O)cc4CC[C@H]3[C@@H]1CC[C@@H]2O [β-Estradiol, β-estradiol]
log p [3]: 3.75

Normalized Delta SSA [1, 9]: −91.19 ± 7.35 | Normalized Wt. % by S-SSA [1, 9]: 47.53 ± 3.10 | Drug [1, 10]: 18.95 ± 1.28 mg | Loading [1, 10]: 1.43 ± 0.10 Wt. % | Normalized Delta SSA [1, 11]: −103.29 ± 2.04 | Normalized Wt. % by S-SSA [1, 11]: 52.82 ± 1.47 | Drug [1, 12]: 19.38 ± 0.54 mg | Loading [1, 12]: 1.19 ± 0.03 Wt. % | Drug Loading ([1]; block 0.65 ± 0.01 mm): 2.07 ± 0.06 mg | Wt. % Loading ([1]; block 0.65 ± 0.01 mm): 1.71 ± 0.07 Wt. % | Drug Loading ([1]; block 1.51 ± 0.01 mm): 4.07 ± 0.19 mg | Wt. % Loading ([1]; block 1.51 ± 0.01 mm): 1.60 ± 0.07 Wt. % | Drug Loading ([1]; block 2.32 ± 0.02 mm): 6.46 ± 0.17 mg | Wt. % Loading ([1]; block 2.32 ± 0.02 mm): 1.46 ± 0.04 Wt. % | Drug Loading ([1]; block 3.26 ± 0.03 mm): 9.68 ± 0.70 mg | Wt. % Loading ([1]; block 3.26 ± 0.03 mm): 1.52 ± 0.11 Wt. % | Drug Loading ([1]; block 4.28 ± 0.04 mm): 14.42 ± 1.21 mg | Wt. % Loading ([1]; block 4.28 ± 0.04 mm): 1.62 ± 0.14 Wt. % | Drug Loading ([1]; block 6.29 ± 0.04 mm): 18.95 ± 1.28 mg | Wt. % Loading ([1]; block 6.29 ± 0.04 mm): 1.43 ± 0.10 Wt. % | Drug Loading ([1]; block 7.81 ± 0.08 mm): 19.38 ± 0.54 mg | Wt. % Loading ([1]; block 7.81 ± 0.08 mm): 1.19 ± 0.03 Wt. % | solubility (physchem): 9500 µg/mL (≈ 35.3 mM) | Drug Release at Zero Order Mass/Day ([4]; block 2.32 ± 0.02 mm, SVF): 406.25 ± 19.80 µg/day | Drug Release at Zero Order Percent/Day ([4]; block 2.32 ± 0.02 mm, SVF): 6.40 ± 0.20 Percent/Day | Drug Release at Zero Order Mass/Day ([4]; block 3.26 ± 0.03 mm, SVF): 423.43 ± 17.17 µg/day | Drug Release at Zero Order Percent/Day ([4]; block 3.26 ± 0.03 mm, SVF): 3.94 ± 0.06 Percent/Day | Drug Release at Zero Order Mass/Day ([4]; block 4.28 ± 0.04 mm, SVF): 450.51 ± 16.45 µg/day | Drug Release at Zero Order Percent/Day ([4]; block 4.28 ± 0.04 mm, SVF): 2.93 ± 0.03 Percent/Day | Drug Release at Zero Order Mass/Day ([4]; block 6.29 ± 0.04 mm, SVF): 453.56 ± 20.13 µg/day | Drug Release at Zero Order Percent/Day ([4]; block 6.29 ± 0.04 mm, SVF): 2.26 ± 0.01 Percent/Day | Drug Release at Zero Order Mass/Day ([4]; block 7.81 ± 0.08 mm, SVF): 454.52 ± 20.34 µg/day | Drug Release at Zero Order Percent/Day ([4]; block 7.81 ± 0.08 mm, SVF): 1.86 ± 0.04 Percent/Day | percent burst release normalized by SSA ([4]; post-loaded SIL 30 blocks, all block distances, normalized by placebo SSA in SVF): around 40% | percent burst release plateau ([4]; post-loaded SIL 30 blocks, larger block distances, SVF, first 24 hrs): 22%
Structure (SMILES): Nc1nc(F)nc2c1ncn2[C@H]1C[C@H](O)[C@@H](CO)O1 [FdA, 2-fluoro-2′-deoxyadenosine]
log p [3]: −0.57 | release profile ([4]; all post-loaded SIL 30 block types, SVF): linear and sustained release following an initial burst
